This test relates to P. falciparum 3D7 growth, pLDH absorbance. Kind of test: P. falciparum 3D7 growth inhibition, dose response, strain 3D7 (AID 2305).

Several values for one entry are separate records, joined by “and”; a condition that tells them apart may be missing. Equal values may be shown once.

With `CCCC(=O)Nc1ccc(OCCCCN(Cc2ccccc2C(F)(F)F)c2ccc(C(F)(F)F)c(C#N)c2)cc1`, the IC50 was 970 nM. Under `CN1CCc2cc(NS(=O)(=O)c3ccc(-c4ccc(Cl)cc4)cc3)c(OCCCN3CCCCC3)cc2CC1` stands 960 nM. Under `CC1CCCCC1N(C)C1CCN(CCCNC(=O)C=Cc2ccc(Cl)cc2Cl)CC1` (centres undefined) stands 650 nM. Next, `Cc1cc(N2CCCCC2)nc2ccc(NC(=O)c3cc(=O)c4ccccc4o3)cc12`: 720 nM.

`CCN(CC)C(=NCCCCCCN=C(/N=C(\N)c1ccc(Cl)cc1)N(CC)CC)/N=C(\N)c1ccc(Cl)cc1`: the IC50 came to 380 nM. Next, `CCn1c(SCc2ccccc2)nc2c1c(=O)[nH]c(=O)n2C`: 240 nM; `Cc1cc(NN=Cc2ccccc2F)c2ccccc2n1`: 920 nM. Under `CC1CCC2(CC1)N=C(N)N=C(N)N2OCCCCCCCCO` (centres undefined) stands 150 nM; under `COc1ccc2nccc([C@@H](O)CN3CCC(NCc4nc5c(F)cc(F)cc5[nH]4)CC3)c2c1`, 570 nM. Next, `COc1ccc(NC(=O)Nc2ccc(-c3ccc(-c4nc5ccccc5[nH]4)cc3)cc2)cc1`: 510 nM; `COc1ccc2nccc([C@@H](O)CN3CCC(NCc4nc5ccccc5[nH]4)CC3)c2c1`: 1070 nM. For the molecule `O=C(CSc1nc(-c2ccccc2Cl)ns1)Nc1ccc2c(c1)OCO2`, the IC50 was 990 nM. Under `CC(=O)Nc1ncc(C(=O)Nc2cccc(-c3cccc(-c4nc5ccc(C(F)(F)F)cc5[nH]4)c3)c2)s1` stands 180 nM; under `CCc1ccc(OCc2ccccc2C(=O)Nc2ccc3nc(C)cc(N)c3c2)cc1`, 200 nM; under `Cc1[nH]c2ccccc2c1C1=CCN(CCN2CCCc3c(Br)cccc3C2=O)CC1`, 660 nM. Under `COc1ccc(-c2ccc(NC(=O)c3cccc(Cl)c3)cc2)cc1CN(C)CCN(C)C` stands 780 nM; under `Cc1cc(CN2CCC(N3CC(c4ccccc4)(c4ccccc4)OCC3=O)C2)ccc1O` (centres undefined), 1080 nM; under `c1ccc(-c2cc(NCc3cccc4ccccc34)c3[nH]ncc3n2)cc1`, 520 nM. Next, `Cc1nc(-c2cccc(Nc3nccc(NCC(O)c4ccccc4C)n3)c2)cs1` (centres undefined): 890 nM; `CN1CCN(c2ccc(Nc3c(C(N)=O)cnc4cc(-c5ccoc5)ccc34)cc2C(F)(F)F)CC1`: 780 nM; `COC(=O)Cn1c2ccccc2c2c(N)c(C(=O)OC)c(C)nc21`: 940 nM. As to `CN1CCN(CC(=O)Nc2ccc(-c3ccc(-c4nc5ccccc5[nH]4)cc3)cc2)CC1`, the half-maximal inhibitory concentration (IC50) is 700 nM. Next, `Oc1ccc(CCNc2nc(NCc3ccccc3-c3ccc(F)cc3)nc(N3CCNCC3)n2)cc1`: 1070 nM. `Cc1ccc(NC(=O)c2ccc(CN3CCCN(Cc4cccc(O)c4)CC3)cc2)cc1`: the IC50 stood at 740 nM.

`Cc1cc(NC(=O)c2sc3ccccc3c2O)no1` returned an IC50 of 810 nM. Next, `NC(N)=Nc1ccc(C(=O)O)c(O)c1`: 1030 nM. Under `COc1cccc(NC(=O)NCCNc2ccnc(Nc3ccc(F)cc3)n2)c1` stands 920 nM; under `O=C(NC1CC1)c1ccc(N2CCC(COc3cccc(F)c3)CC2)nc1`, 1240 nM; under `CC(C)C(C)(C#N)NC(=O)CSc1nc2ccc([N+](=O)[O-])cc2s1` (centres undefined), 1030 nM. Next, `CC(C)c1ccc(NC(=O)N[C@H]2CCN(CCCCCNC(=O)/C=C/c3ccc(Cl)c(Cl)c3)C2)cc1`: 710 nM; `CC(=O)N[C@H](C(=O)Nc1ccc(-c2ccc(-c3nc4ccc(C(F)(F)F)cc4[nH]3)cc2)cc1)C(C)C`: 890 nM; `COc1ccc2nccc([C@@H](O)CN3CCC(NC/C=C/c4cccnc4)CC3)c2c1`: 620 nM. With `O=C(n1c(-c2cc3ccccc3n2C(=O)C(F)(F)F)cc2ccccc21)C(F)(F)F`, the half-maximal inhibitory concentration (IC50) came out at 880 nM. Under `N#Cc1ccc(-c2ccc(C(=O)NCCCCN3CCC(c4cn(CCCO)c5ccccc45)CC3)cc2)cc1` stands 750 nM.

In the case of `COC(=O)c1noc(C)c1I`, the IC50 came to 800 nM. Under `Oc1ccc(-c2cc(COc3ccccc3C(F)(F)F)c(C3=CCNCC3)cc2COc2ccccc2C(F)(F)F)cc1` stands 780 nM; under `O=c1cc(N2CCCNCC2)c(Cl)nn1Cc1ccc(NS(=O)(=O)c2ccc(Oc3ccccc3)cc2)cc1`, 800 nM; under `COc1ccc2[nH]cc(C3CCN(CCCCCNC(=O)c4ccc(-c5ccccc5)cc4)CC3)c2c1`, 800 nM. As for `O=C(C=Cc1ccccc1Br)NC1CCC(CN2CCC(c3c[nH]c4ccccc34)CC2)CC1` (centres undefined), the IC50 was 740 nM and 690 nM. Under `Cc1ccc(CC(C)NCC(O)c2cccc(C#N)c2)cc1` (centres undefined) stands 940 nM.

As for `Cc1[nH]c(C)c(-c2ccc(C#Cc3ccc(F)cc3F)cc2)c(=O)c1Br`, the IC50 was found to be 30 nM. Regarding `Cc1cccc2[nH]c(-c3ccc(-c4ccc(C(=O)NCCN5CCCC5)cc4)s3)nc12`, the IC50 stood at 900 nM. For `COc1ccc2nccc([C@@H](O)CN3CCC(NCc4ccc5cccc(O)c5n4)CC3)c2c1`, the IC50 amounted to 1130 nM. As for `CC(C)N1CCN(C(CN2CCN(CCCOc3ccc4nonc4c3)CC2)c2ccc(F)cc2)CC1` (centres undefined), the half-maximal inhibitory concentration (IC50) is 800 nM. Under `N#Cc1cccc(-c2cccc(C(=O)NC3CCC(CCN4CCc5ccc(C#N)cc5CC4)CC3)c2)c1` (centres undefined) stands 260 nM. Under `Cc1cc(CNCCCCCCNCc2ccc(Cl)cc2)ccc1O` stands 820 nM; under `Cc1ccccc1C1CCN(C2CCC(NC(=O)c3ccc(-c4ccccc4)s3)CC2)CC1` (centres undefined), 660 nM; under `O=S1(=O)NC2(CCN(CCc3ccc(Cl)cc3)CC2)Nc2cc(F)cc(F)c21`, 1460 nM. For the molecule `Cc1c(O)cccc1Nc1ccnc2ccc(C(F)(F)F)cc12`, the IC50 was 30 nM. Take `COc1ccc(NC(=O)/C=C/c2ccccc2Cl)cc1OCCN1CCC(N(C)C)CC1`: the IC50 was found to be 970 nM. Under `CN(C)CCCOc1ccc(CN2CCC(c3c[nH]c4ccc(NCC5CCCCC5)cc34)CC2)cc1` stands 680 nM; under `O=c1cc(NCCC2CC=CCN2Cc2ccc(Cl)c(Cl)c2)[nH]c2ccccc12` (centres undefined), 1730 nM. Next, `Oc1cccc(-c2nc3ccc(C4=N[C@@H]5CCCC[C@H]5N4)cc3[nH]2)c1`: 530 nM; `C=C[C@H]1CN2CC[C@H]1C[C@H]2[C@H](O)c1ccnc2ccc(OC)cc12`: 100 nM and 430 nM and 150 nM; `COc1ccc2nc(N3CCNCC3)nc(NCCCc3ccccc3)c2c1`: 1000 nM. Next, `Nc1c2ccccc2nc2cc([N+](=O)[O-])ccc12`: 870 nM; `CCC[C@@H]([C@@H](CC1CCC(C)CC1)C(=O)N[C@@H](CCCNc1ncccn1)C(=O)Nc1nccs1)N(O)C=O` (some centres undefined): 190 nM. With `COc1ccc(C2c3cc(OC)c(OC)cc3C(=NO)C2C)cc1OC` (centres undefined), the IC50 amounted to 1170 nM.

`O=C(/C=C/c1ccc(Cl)c(Cl)c1)N1CCC(CN2CCC(c3nc4ccccc4n3CCCO)CC2)CC1` had an IC50 of 840 nM. Next, `CN(c1ccc(NC(=O)Nc2cc(C(F)(F)F)ccc2F)cc1)c1ccnc(NCCN2CCOCC2)n1`: 510 nM; `O=S(=O)(/C=C/c1ccccc1)N(Cc1ccc(-c2ccc(CNCCc3ccccn3)cc2)cc1)CC1CCCCN1` (centres undefined): 740 nM; `OCC1CCN(Cc2cccc(-c3ccc(-c4nc5ccc(C(F)(F)F)cc5[nH]4)cc3)c2)CC1`: 660 nM. Next, `CN(C)CCCNCc1ccc(-c2ccc(C(F)(F)F)cc2)cc1`: 870 nM; `CN(c1ccccc1C(=O)Nc1cc(Cl)ccc1Oc1ccccc1)S(=O)(=O)c1ccccc1`: 740 nM.

Broadly, the IC50 is the concentration needed to halve the response being measured. High values mean a need for much substance, low ones inhibition by little substance.

Source of the values: PubChem BioAssay AID2305 (GlaxoSmithKline (GSK), 2010).
